From article PMC11347161, “Sequence diversity of apidaecin-like peptides arresting the terminating ribosome” (Nucleic Acids Research, 2024)
Residues, ends and D or L forms follow the SMILES beside them. No end group written: not given here. *: point of attachment. Orn(α-tetramethylguanidino) = CN(C)C(=N[C@@H](CCCN)C(=O)*)N(C)C

How the values were obtained:
[1] = tested on: E. coli, BL21 cells; assay type: cell-based; conditions: E. coli BL21, broth microdilution, conducted in triplicate; for MIC, TSB: 33% TSB medium; for MIC, LB: LB medium; for MIC, RPMI/Serum: RPMI/Serum medium (RPMI-1640:MHB:FBS = 100:5:20)
Description: The E. coli strain CA244 (lacZ125(Am), e14-, trpA49(Am), relA1, spoT1) was obtained from Escherichia coli Genetic Stock Center. The E. coli BL21(DE3) electrocompetent cells were from Sigma. The following media and components were implemented for bacteria growth: lysogeny broth (LB), minimal M9 medium, Tryptic Soy Broth (TSB), Roswell Park Memorial Institute medium 1640 (RPMI-1640), Mueller Hinton Broth (MHB), Fetal Bovine Serum (FBS). For various experiments E. coli cells were grown either in LB, in 33% TSB ([21]), in M9 medium supplemented with 1% Glycerol, 1 mM MgSO4, 0.1 mM CaCl2 and 10 μg/ml thiamine, or in RPMI/Serum (RPMI-1640:MHB:FBS = 100:5:20) ([23]).
The minimal inhibitory concentration (MIC) test was performed using the broth microdilution method, adapted from the previously described procedure ([28]). The MIC tests were conducted in triplicate either in LB, 33% TSB or RPMI/Serum media.
In order to quantitatively assess the antimicrobial activity of the synthesized peptides identified by both, the negative and positive selection strategies, we determined their minimal inhibitory concentrations (MICs) for the E. coli BL21 cells in three different media: LB, as a standard laboratory medium, 33% TSB, as a medium in which PrAMPs show increased antibacterial properties ([21]), and in the more therapeutically relevant RPMI/serum media ([23]) (Table 1). […] It appears, therefore, that the positive selection strategy is more prone to identifying biologically active peptides in comparison with the negative selection approaches. Furthermore, it became apparent that some multiple substitutions can even improve the antibacterial properties of the Api-like peptides.

[2] = tested on: E. coli BL21 cells; assay: Negative (depletion) selection of clones expressing Api variants, NGS; assay type: cell-based; conditions: log2-fold change of clone abundance, three replicates, edgeR
Description: Prior to the library screening, pilot experiments were conducted to optimize arabinose concentration. To achieve this, E. coli BL21 cells transformed with the pApi plasmid carrying the wt Api gene were plated on LB/agar plates supplemented with Amp and increasing concentrations of arabinose in the 0.05–0.2% range. […] Subsequent library depletion experiments were carried out on plates containing 0.05% arabinose.
For the negative selection targeted at depleting the clones expressing active Api-like peptides, the 2 ml library stock containing a total of ∼2 × 10^9 colony forming units (cfu) was thawed, diluted 3-fold in LB medium and allowed to recover for 30 min at 37°C. Subsequently, the cultures with the recovered cells were thoroughly mixed, and equal volumes (300 μl) were plated on ten LB/Amp plates supplemented with 2% glucose (for the total library) or ten LB/Amp plates supplemented with 0.05% arabinose (for the library depleted of clones expressing active Api variants). After incubation at 37°C for 16 h, clones were washed off the plates and cell suspensions were used for preparation of the total plasmid, resulting in the pApi(Glu) and pApi(Ara) plasmid preps. The depletion experiments were carried out in three independent replicates.
For deep sequencing of the genes encoding Api-like peptides, the peptide-coding genes were PCR-amplified from the total pApi(Glu) and pApi(Ara) plasmids. Two 50 μl PCR reactions were carried out for each sample using Q5 DNA polymerase (New England Biolabs). The reactions were run in the manufacturer provided buffer, each reaction containing 20 ng of plasmid DNA and 10 pmol of primers Api_Lib_F_i5X and Api_Lib_R_i7X (Supplementary Table S2) which added specific bar codes to the individual samples. PCR amplification was carried out under the following conditions: 98°C, 30 s; 10 cycles of [98°C/10 s, 56°C/20 s, 72°C/10 s]; 72°C 120 s. The PCR products were size-fractionated and extracted from the denaturing 8% polyacrylamide gel. Bar-coded DNA libraries (Supplementary Figure S1B) were combined and sequenced on Illumina MiSeq after being spiked in with PhiX Control v3 library (Illumina) to compensate for sequence diversity of the sample.
Sequencing has generated >350 million total reads for the three unselected samples and > 300 million total reads for the depleted library samples. The raw reads were trimmed to the size of the peptide gene and those containing internal ambiguous bases or being less than 60 bases in length were discarded. The nucleotide sequences were translated into amino acid sequences and the peptides lacking N-terminal methionine or deviating from the size of the expected sequence were eliminated. Peptides with <100 reads in each of the pApi(Glu) samples were also discarded. Subsequently, the filtered data underwent differential abundance analysis using the standard workflow of edgeR within the R/Bioconductor package ([27]). This analysis generated logFC (the log2-fold change of unique peptides between Glu and Ara samples), q-values (adjusted P-values with the FDR correction), and log10 CPM values (log counts per million), detailed in Dataset 1. A volcano plot was generated in R to visualize the differential abundance of unique peptides based on these parameters.

[3] = sheet Negative Selection logFC>1, q<0.005 (putatively functional variants), arabinose vs glucose, endogenously expressed peptide
[4] = sheet diff-NS-All, induced (0.05% arabinose) vs non-induced (2% glucose), endogenously expressed peptide with N-terminal Met

Compound | MIC, TSB [1] [µM] | MIC, LB [1] [µM] | MIC, RPMI/Serum [1] [µM] | Ara/Glu: logFC [2, 3] | Ara/Glu: logFC [2, 4]
CC[C@H](C)[C@H](NC(=O)[C@H](Cc1ccc(O)cc1)NC(=O)[C@@H](NC(=O)[C@H](Cc1c[nH]c2ccccc12)NC(=O)[C@H](CCCNC(=N)N)NC(=O)[C@H](CC(N)=O)NC(=O)[C@H](CC(N)=O)NC(=O)[C@H](CCCN)N=C(N(C)C)N(C)C)C(C)C)C(=O)N[C@@H](CC(N)=O)C(=O)N[C@H](C(=O)N1CCC[C@H]1C(=O)N[C@@H](CCCNC(=N)N)C(=O)N[C@@H](CO)C(=O)N1CCC[C@H]1C(=O)N[C@@H](Cc1c[nH]cn1)C(=O)N1CCC[C@H]1C(=O)N[C@@H](CCCNC(=N)N)C(=O)N[C@@H](CC(C)C)C(=O)O)[C@@H](C)O [Peptide W5N9T10S13] ({Orn(α-tetramethylguanidino)}-NNRWVYINTPRSPHPRL-OH; C-terminus assumed) | >64 | >64 | >64 | – | –
GKNRPVYIYQPKPPIPRL [Peptide K2Y9K12I15] | >64 | >64 | >64 | – | –
GNNRPGYDRQPRPPHPRL [Peptide G6D8R9] | 8 | 16 | 4 | – | –
GNNRPGYIPPPRPPHPRL [Peptide G6P10] | 0.5 | 8 | 4 | – | –
GNNRPGYQPKPRPPHPRL [Peptide G6Q8K10] | 0.5 | 32 | 16 | – | –
GNNRPVCAPQPAWPTGRL [C7A8A12W13T15G16] | >64 | >64 | >64 | – | –
GNNRPVECPQPRPRVPRL [Peptide E7C8R14V15] | >64 | >64 | >64 | – | –
GNNRPVYAYQPRPPHPRT [Peptide A8Y9T18] | 4 | 32 | 8 | – | –
GNNRPVYIPKPPTPHPRL [Peptide K10P12T13] | 1 | 64 | 8 | – | –
GNNRPVYIPKPRPPYPRK [Peptide K10Y15K18] | 2 | 8 | 2 | – | –
GNNRPVYIPQPRPPHPRL [Api Ib, Apidaecin 1b, reference compound] | 0.5 | 16 | 4 | – | –
GNRRPMYIPRPRPPHPRE [Peptide R3M6R10E18] | 8 | >64 | 16 | – | –
GNRRPVYIPVPRPPYPRL [Peptide R3V10Y15] | 2 | 8 | 2 | – | –
GRNRPVYIPKPRPPHPRL [Peptide R2K10] | 0.25 | 2 | 0.5 | – | –
GYNRPAYIPRPRPPHPRR [Peptide Y2A6R10R18] | 1 | 4 | 0.5 | – | –
MGNNRKVYIGEPRPPYPRL* [endogenously expressed Api library variant K6,G10,E11,Y16 (numbering includes Met)] | – | – | – | -4.01 | -4.01
MGNNRNVYIAQPRPYHPRI* [endogenously expressed Api library variant N6,A10,Y15,I19 (numbering includes Met)] | – | – | – | – | -4.88
MLNNIGVQVPKPRPPHPRL* [endogenously expressed Api library variant L2,I5,G6,Q8,V9,K11 (numbering includes Met)] | – | – | – | – | -3.95
MTNNRKVYEPEPRPPHPRL* [endogenously expressed Api library variant T2,K6,E9,E11 (numbering includes Met)] | – | – | – | -4.06 | -4.06
SVMRPVYKPQPRPPHPRL [Peptide S1V2M3K8] | 0.5 | 16 | 4 | – | –
TNARPVNAPQPRPPHPRL [Peptide T1A3N7A8] | 8 | 64 | 16 | – | –
